According to patent publication US20210236468A1, “COMPOSITION FOR PREVENTING OR TREATING CANCER, COMPRISING A VASCULAR DISRUPTING AGENT AND TAXANE COMPOUND” (Chong Kun Dang Pharmaceutical Corp., priority 2018, published 2021):
Marks after values point to notes of the source that are not given here.

How the values were obtained:
H1975 cell lines = assay: Anti-cancer activity (tumor volume) in H1975 lung cancer xenograft nude mice; type: in vivo, human; conditions: CKD-516 3 mg/kg ip, twice a week for three weeks; for Tumor volume / tumor growth, result in words: FIG. 1, FIG. 2
Method: As a human tumor cell line, a lung cancer cell line, i.e., H1975 cell lines were purchased from the American Type Culture Collections (ATCC). One vial of the cell lines was inserted into an RPMI1640 medium (Gibco, 22400) containing a heatinactivated 10% fetal bovine serum (FBS; Gibco, 10082-742), and cultured in a 5% CO2 incubator at 37° C. The resulting cells were washed with PBS, after which a 10-fold dilution of 2.5% Trypsin-EDTA (Gibco, 15090) was added thereto, such that cells were isolated therefrom. Then, centrifugation was performed (at 1,000 rpm for 5 min), after which supernatant thereof was discarded, such that a cell suspension was obtained by means of a new medium. A survival rate was identified with a microscope to make a preparation in an amount of 1.0×10^7 cells/mL.
The five-week old male […] nude mice (Hsd: Athymic Nude-Foxn1^nu) were purchased from Saeron Bio Inc. (Gyeonggi Province in South Korea).
Thus prepared tumor cell lines were subcutaneously (sc) injected by 0.2 ml (2×10^6 cells) into a back of the mice by using a 26-gauge needle syringe. In about three to four weeks after the injection, animals whose tumor sizes reached 170 mm^3 to 220 mm^3 were selected and used for an experiment.
A comparison between a positive control group and groups dosed with a test substance with regard to a negative control group, and a comparison between the positive control group and the groups dosed with a test substance were verified through One-way ANOVA. At this time, assuming that significance was accepted, a post-hoc test was performed with Duncan test, if an equal variance was accepted, and with Dunnett's test, if the equal variance was not accepted. If p-value is 0.05 or less, significance was accepted, and SPSS 10.1, a statistical program in common use, was used.

A-549 cancer cell lines = assay: Anti-cancer activity (tumor volume) in A-549 lung cancer xenograft Balb/c nude mice; type: in vivo, human; conditions: A549 xenograft, docetaxel 2.5 mg/kg ip once a week, CKD-516 4 mg/kg po daily, eight weeks, FIG. 3, FIG. 4
Source text: A-549 cancer cell lines (1×10^7 cells), which are human lung cancer cell lines purchased from the ATCC, were subcutaneously injected into the mice. Particularly, a needle point was inserted into mice in the left side before injecting cancer cells, and moved from side to side to inject the cancer cells and to identify that an administered solution was not leaked out, such that a tumorigenesis was observed. Animals whose tumor sizes reached 100 mm^3 to 250 mm^3 were selected and used for an experiment.
Experimental groups were randomly divided as shown in the table 3 above. • Vehicle: Daily for eight weeks, oral administration; • Docetaxel: 2.5 mg/kg, once a week for eight weeks, intraperitoneal administration; • CKD-516: 4 mg/kg, daily for eight weeks, oral administration; and • CKD-516+Docetaxel: CKD-516 (4 mg/kg, daily for eight weeks, oral administration) to be administered first+Docetaxel (2.5 mg/kg, once a week for eight weeks, intraperitoneal administration).
For the tumor volume, statistical processing was performed by using a statistical processing program (GraphPad PRISM® Version 5.0, GraphPad Software, the U.S.).

H460 cancer cell lines = assay: Anti-cancer activity (tumor volume) in H460 lung cancer tissue-transplanted Balb/c nude mice; conditions: H460 tumor transplant, paclitaxel 20 mg/kg iv, CKD-516 2.5 mg/kg ip, once a week for three weeks, FIG. 5, FIG. 6
Method: The four-week old male Balb/c nude mice were purchased from Central Lab Animal Inc.
In 20 to 25 days later, the mice were subjected to euthanasia by means of cervical vertebral dislocation, after which a solid cancer proliferated in the mice was sterilely isolated therefrom to obtain fresh cancer tissues, from which connective tissues, necrotic tissues, skins, etc. were removed.
The cancer tissues were divided by 50 mg in a sterile state, and subcutaneously transplanted into the mice by using a 16-gauge trocar. In 12 days after the transplantation, the mice whose cancer tissues were proliferated up to a certain size, were selected and used for the experiment.
Paclitaxel was dissolved in an excipient (excipient 2), which was prepared by mixing cremophor, ethanol and saline at a ratio of 1:1:8, and prepared in accordance with the administered dose for each group as shown in the following table 4.
The anti-cancer activity was determined based on a tumor volume. The tumor volume was obtained by measuring a long axis and a short axis of the tumor by means of electronic callipers (CD-15CPX, Mitutoyo Corp., Japan) and calculating measured values according to a following equation (twice a week):
Tumor volume (mm^3)=(Long axis length×Short axis length^2)/2.

[1] = date 4/10, docetaxel 6 mg/kg ip
[2] = date 4/14, docetaxel 6 mg/kg ip
[3] = date 4/17, docetaxel 6 mg/kg ip
[4] = date 4/21, docetaxel 6 mg/kg ip
[5] = date 4/24 (end of experiment), docetaxel 6 mg/kg ip

COc1cc(C(=O)c2ccc(-c3csc(NC(=O)[C@@H](N)C(C)C)n3)cc2-n2cncn2)cc(OC)c1OC [CKD-516, (S)—N-(4-(3-(1H-1,2,4-triazole-1-yl)-4-(3,4,5-trimethoxybenzoyl)phenyl)thiazole-2-yl)-2-amino-3-methylbutanamide]
Tumor volume (mm^3), mean (H1975 cell lines; date 4/7, docetaxel 6 mg/kg ip): 121.8 mm^3 | Tumor volume (mm^3), mean (H1975 cell lines; [1]): 146.3 mm^3 | Tumor volume (mm^3), mean (H1975 cell lines; [2]): 321.3 mm^3 | Tumor volume (mm^3), mean (H1975 cell lines; [3]): 432.4* mm^3 | Tumor volume (mm^3), mean (H1975 cell lines; [4]): 504.9 mm^3 | Tumor volume (mm^3), mean (H1975 cell lines; [5]): 790.7*** mm^3 | Tumor volume / tumor growth, result in words (H1975 cell lines; docetaxel 6 mg/kg ip): showed a similar tendency to the group dosed with docetaxel | Tumor volume / tumor growth, result in words (A-549 cancer cell lines): the tumor did not almost grow | Tumor volume / tumor growth, result in words (H460 cancer cell lines): showed a similar tendency to the group dosed with paclitaxel

CC(=O)O[C@@]12CO[C@@H]1C[C@H](O)[C@@]1(C)C(=O)[C@H](O)C3=C(C)[C@@H](OC(=O)[C@H](O)[C@@H](NC(=O)OC(C)(C)C)c4ccccc4)C[C@@](O)([C@@H](OC(=O)c4ccccc4)[C@H]21)C3(C)C [Docetaxel, docetaxel]
Tumor volume (mm^3), mean (H1975 cell lines; date 4/7, docetaxel 6 mg/kg ip): 123.4 mm^3 | Tumor volume (mm^3), mean (H1975 cell lines; [1]): 178.0 mm^3 | Tumor volume (mm^3), mean (H1975 cell lines; [2]): 309.6 mm^3 | Tumor volume (mm^3), mean (H1975 cell lines; [3]): 460.5 mm^3 | Tumor volume (mm^3), mean (H1975 cell lines; [4]): 500.2*** mm^3 | Tumor volume (mm^3), mean (H1975 cell lines; [5]): 513.9*** mm^3 | Tumor volume / tumor growth, result in words (H1975 cell lines; docetaxel 6 mg/kg ip): a growth of the tumor was decreased over time compared to the negative control group, but the tumor volume was continuously increased | Tumor volume / tumor growth, result in words (A-549 cancer cell lines): no significant difference in a growth rate of the tumor compared to the negative control group

CC(=O)O[C@H]1C(=O)[C@@]2(C)[C@H]([C@H](OC(=O)c3ccccc3)[C@]3(O)C[C@H](OC(=O)[C@H](O)[C@@H](NC(=O)c4ccccc4)c4ccccc4)C(C)=C1C3(C)C)[C@]1(OC(C)=O)CO[C@@H]1C[C@@H]2O [paclitaxel]
Tumor volume / tumor growth, result in words (H460 cancer cell lines): a growth of the tumor was decreased over time compared to the negative control group, but the tumor volume was continuously increased
